From patent US11731959B2, “Troxacitabine synthesis and crystal form thereof” (BEIJING HEBABIZ BIOTECHNOLOGY CO., LTD., priority 2015, dated 2023)

Legend:
Assay type in all cases: physicochemical
[1] = Hygroscopicity study by DVS method at 25° C.; details: for humidity at which the crystal form begins to absorb water / water absorbed at 90% RH: 25° C.; for crystal form after water absorption / DVS (XRPD): XRPD before and after DVS
Method: The hygroscopicity of crystal forms A, C and E is evaluated by DVS method at 25° C. Crystal form A begins to absorb water at 70% RH and absorbs 8.4% of water at 90% RH. […] Crystal form E begins to absorb water at 80% RH and absorbs 8.5% of water at 90% RH. […] Therefore, crystal form C is selected for further stability study.

[2] = Crystal form conversion on storage or heating (XRPD/DSC)
Text: The innovator of this invention set up 103 pleiomorphic screening tests using 7 methods, and obtained 7 crystal forms therefrom, i.e., crystal forms A, B, C, E, F, J and K. Among those, crystal forms B, F and J are instable at common temperature while crystal form K is a crystal form of troxacitabine acetic acid solvate or acetate, crystal form C is a crystal form of troxacitabine monohydrate, and crystal forms A and E are the crystal forms of troxacitabine itself (anhydrous substance).
Transfer 201.3 mg of the final product obtained in the embodiment 1 to a 5-ml flasket, add 0.8 mL of water to dissolve and volatilize in a fume hood with the top open for 3 days. Transfer into a vacuum drying oven (<−100 KPa) and volatilize with the top open for 1 day. The resulted crystal form is called crystal form C and its superficial characteristics are obtained using x-ray powder diffraction (XRPD), thermogravimetric analysis (TGA) and differential scanning calorimetry (DSC).
Transfer 199.8 mg of the final product obtained in the embodiment 1 to a 5-ml flasket, add 4.0 mL of methanol:acetone=1:9 (v/v), and mix the suspension for 3 days. Centrifugate for 3 min at a rate of 10000 rpm, precipitate and vacuum dry for 1 h. The resulted crystal form is called crystal form E and its superficial characteristics are obtained using x-ray powder diffraction (XRPD) and differential scanning calorimetry (DSC). […] (the first endothermic peak at a starting temperature of 68.3° C. is the dehydration peak of crystal form C), the second endothermic peak disappears from DSC spectrum when heated to 160° C., that is, the second endothermic peak at a starting temperature of 146.0° C. is the crystal form conversion peak of crystal form A from crystal form E.)

[3] = Stability study of crystal form C (XRPD, TGA, DSC, HPLC)
Method: Crystal form C is evaluated for its physical-chemical stability when placed at 80° C. for 24 h (with the top closed) as well as at 40° C./75% RH and 25° C./60% RH for 1 week (with the top open). The chemical and physical stability of the samples are tested by XRPD, TGA, DSC and HPLC.

[4] = 1 week, 25° C./60% RH, top open
[5] = 1 week, 40° C./75% RH, top open

Structure (SMILES) | humidity at which the crystal form begins to absorb water ([1]; DVS) | water absorbed at 90% RH ([1]; DVS) | crystal form after water absorption / DVS (XRPD) [1] | crystal form change on heating ([2]; heated to 160° C., XRPD) | crystal form change on storage ([2]; stored for 3 months in air, XRPD) | hygroscopicity ([1]; DVS, 25° C./80% RH) | relative stability among crystal forms ([1]; room temperature and room humidity) | TGA weight loss (heated to 100° C.) ([3]; 0 h, NA) | HPLC purity ([3]; 0 h, NA) | TGA weight loss (heated to 100° C.) [3, 4] | HPLC purity [3, 4] | TGA weight loss (heated to 100° C.) [3, 5] | HPLC purity [3, 5] | physical stability ([3]; 40° C./75% RH and 25° C./60% RH, 1 week) | chemical stability ([3]; 80° C. 24 h, 40° C./75% RH and 25° C./60% RH 1 week, chemical impurity analysis) | TGA weight loss (heated to 100° C.) ([3]; 24 h, 80° C., top closed) | HPLC purity ([3]; 24 h, 80° C., top closed) | crystal form change on heating ([2]; heated to 100° C., XRPD) | crystal form change on storage ([2]; 1-month storage)
Nc1ccn(C2CO[C@H](CO)O2)c(=O)n1 (some centres unmarked) [crystal form E] | 80 % RH | 8.5% | begins to convert into crystal form C | conversion of crystal form E into crystal form A | has a tendency to convert into crystal form C |  |  |  |  |  |  |  |  |  |  |  |  |  | 
Nc1ccn(C2CO[C@H](CO)O2)c(=O)n1 (some centres unmarked) [crystal form C] |  |  | remain the same in crystal form |  |  | 0.14% | most stable crystal form | 8.0 | 100.0 area % | 8.2 | 100.0 area % | 7.9 | 100.0 area % | physically stable | chemically stable | 0.4 | 100.0 area % | conversion of crystal form C into crystal form A | 
Nc1ccn(C2CO[C@H](CO)O2)c(=O)n1 (some centres unmarked) [crystal form A] | 70 % RH | 8.4% | begins to convert into crystal form C |  |  |  |  |  |  |  |  |  |  |  |  |  |  |  | partially convert into crystal form C
